In one assay the target is T1, 5-HT transporter (Homo sapiens, UniProt P31645).
T1 construct: expressed in transfected cells; host or cells: CHO cells
The experiment in a line: In vitro radioligand binding assay, 5-HT transporter, [3H]imipramine. The following applies: human recombinant (CHO cells). Here is the method: (§1) Certain compounds were tested by in vitro binding assays using standard procedures. […] These receptors and assays are well known to those skilled in the art, as exemplified by the following: Abramovitz, M. et al. (2000), Biochem. Biophys. Acta., 1483: 285-293 (EP4, IP (PGI2)); Aharony, D. et al. (1993), Mol. Pharmacol., 44: 356-363 (NK2); Ardati, A. et al. (1997), Mol. Pharmacol., 51: 816-824 (NOP (ORL1)); Bignon, E. et al. (1999), J. Pharmacol. Exp. Ther. 289: 742-751 (CCK1 (CCKA)); Bloomquist, B. T. et al. (1998), Biochem. Biophys. Res. Commun., 243: 474-479 (GAL2); Brockhaus, M. et al. (1990), Proc. Natl. Acad. Sci. U.S.A., 87: 3127-3131 (TNF-α); Brown, G. B. (1986), J. Neurosci., 6: 2064-2070 (Na+ channel (site 2)); Buchan, K. W. et al. (1994), Brit. J. Pharmacol., 112: 1251-1257 (ETA); Cesura, A. M. et al. (1990), Mol. Pharmacol., 37: 358-366 (MAO-A); Choi, D. S. et al. (1994), FEBS Lett., 352: 393-399 (5-HT2B); Clark, A. F. et al. (1996), Invest. Ophtalmol. Vis. […]

Another assay deals with GABA (non-selective). The assay can be described thus: In vitro radioligand binding assay, GABA (non-selective), [3H]GABA. The following applies: rat cerebral cortex membranes. The procedure:
as §1

T1 sequence (P31645 whole entry): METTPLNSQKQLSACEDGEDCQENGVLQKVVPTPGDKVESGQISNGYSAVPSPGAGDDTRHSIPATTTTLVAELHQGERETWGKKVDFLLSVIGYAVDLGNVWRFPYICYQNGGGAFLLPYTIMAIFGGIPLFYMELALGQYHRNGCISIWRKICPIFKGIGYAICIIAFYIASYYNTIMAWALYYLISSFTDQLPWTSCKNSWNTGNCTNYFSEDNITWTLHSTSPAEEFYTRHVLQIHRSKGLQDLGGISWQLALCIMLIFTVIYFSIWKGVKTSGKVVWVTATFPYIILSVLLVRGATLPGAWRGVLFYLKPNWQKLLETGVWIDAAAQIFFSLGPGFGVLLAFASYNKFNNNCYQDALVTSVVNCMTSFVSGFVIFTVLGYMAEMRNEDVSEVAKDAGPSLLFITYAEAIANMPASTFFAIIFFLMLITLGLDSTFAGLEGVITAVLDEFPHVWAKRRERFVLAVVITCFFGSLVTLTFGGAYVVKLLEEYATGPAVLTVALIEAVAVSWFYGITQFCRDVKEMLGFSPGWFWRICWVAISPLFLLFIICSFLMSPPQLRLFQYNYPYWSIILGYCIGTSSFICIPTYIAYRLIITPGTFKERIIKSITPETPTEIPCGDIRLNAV

For the compound `Fc1ccc2c(c1)CCO[C@H]2[C@@H]1CCN1` [Compound I-90, (S)-2-((R)-6-fluoroisochroman-1-yl)azetidine], the “Sert percent inhibition of specific binding” value at 5-HT transporter stood at 80%.

In the case of `Fc1ccc2c(c1)[C@H]([C@@H]1CCCN1)OCC2` [Compound I-5, (2S)-2-((R)-7-fluoroisochroman-1-yl)pyrrolidine], the “GABA percent inhibition of specific binding” value in the assay with GABA (non-selective) amounted to 57%.

Source of the values: patent US10336732B2, “1-heterocyclyl isochromanyl compounds and analogs for treating CNS disorders” (Sunovion Pharmaceuticals Inc., priority 2015, dated 2019).
